# Earlier results in patent publication US9910020B1, “Methods and articles for identifying objects using encapsulated perfluorocarbon tracers” (Copilot Ventures Fund III LLC, priority 2005, dated 2018).
# Columns and labels:
# [1] = test system: cytochrome P-450; conditions: PFD given to rats; hepatic metabolizing enzymes
# [2] = test system: cytochrome P-450 IIA1 (a.k.a. cytochrome P450b); conditions: following PFD treatment, rats; as with phenobarbital induction
# [3] = test system: cytochrome P-450 IIA2 (a.k.a. cytochrome P450e); conditions: following PFD treatment, rats; as with phenobarbital induction
# [4] = test system: benzphetamine-N-demethylase; conditions: following PFD treatment, rats
# [5] = test system: aldrin-epoxidase; conditions: following PFD treatment, rats
# [6] = test system: cytochrome P-450 IA1 and IA1; conditions: following PFD treatment, rats; induced by 3-methylcholanthrene-type inducers
# [7] = test system: cytochrome P450 IV; conditions: following PFD treatment, rats; induced by fatty acids and perfluoronated fatty acids
smiles,measurement,setting,value
"FC1(F)C(F)(F)C(F)(F)C2(F)C(F)(F)C(F)(F)C(F)(F)C(F)(F)C2(F)C1(F)F (stereo not shown) [PFD, perfluorodecalin]",induction of cytochrome P-450,[1],induce cytochrome P-450 in a manner similar to phenobarbital
same,"activity of cytochrome P-450 IIA1, increase",[2],approximately two-fold
same,"activity of cytochrome P-450 IIA2, increase",[3],approximately two-fold
same,activity of benzphetamine-N-demethylase,[4],increased
same,activity of aldrin-epoxidase,[5],increased
same,activities of cytochrome P-450 IA1 and IA1,[6],unaffected
same,activity of cytochrome P450 IV,[7],unaffected
